# Values quoted from earlier work in patent publication US7247752B2, “Methods for the synthesis of astaxanthin” (Cardax Pharmaceuticals, Inc., priority 2004, dated 2007).
# System: transformed cells as well as normal prostatic epithelium
# Conditions: alone and/or in combination with other antioxidants (e.g. vitamin E)
smiles,measurement,value
CC(C)=CCC/C(C)=C/C=C/C(C)=C/C=C/C(C)=C/C=C/C=C(C)/C=C/C=C(C)/C=C/C=C(\C)CCC=C(C)C [lycopene],growth inhibition of cultured human cells,growth inhibitory
